Results from patent US20070203233A1, “NOVEL 2-(alpha-N-PENTANONYL)BENZOATES, THEIR PREPARATION AND USE” (priority 2004, published 2007).
Marks after values point to notes of the source that are not given here.

Tests used:
The Stability to Light = assay type: physicochemical; details: 10 days, HPLC
Thermal Stability = assay type: physicochemical; details: 60° C., 10 days, HPLC
[1] = tested on: model rats of middle cerebral artery thrombosis (MCAT); assay: Effects on neural symptoms of MCAT rats; assay type: in vivo, SD rats; set-up: key to Scores 6 hours / Scores 24 hours: 0/1 per test, summed (max 4); higher = more severe behavioral disorder; details: for Scores 6 hours: behavioral score 6 h after operation (full mark 4); for Scores 24 hours: behavioral score 24 h after operation (full mark 4); for % inhibition at hour 24: vs. model group
Protocol: (1) Grouping and administration: […] Preventive administration was conducted by gavage one time per day for 3 days prior to the model being established. The model was established on day 4, and a dosage of one day was administered by gavage immediately after the model was established. Another dosage of one day was again administered by gavage 12 hours after the model was established. Equivalent amount of the vehicle was administered to the control group. […] Description of technique and early neuropathological consequences following middle cerebral artery occlusion. J Cereb Blood Flow Metab, 1981, 1: 53), and fixed in lateral decubitus position. A bowtype incision of 1.5 cm long was made at the midpoint between canthus and exterior auditory canal. Temporalis was broken and incised to expose temporal bone. […] The filter paper was removed after 30 min when the vascular became black. The localized tissue was washed with physiological brine, and sutured layer by layer. Then rats were placed back into the cages. By following the modified method of Bederson et al. […] (2) The animals were placed onto a smooth ground, and the resistance of contralateral shoulder to push was examined. “0” was recorded if the resistance of both shoulders were equal and strong; and “1” was recorded if the resistance of contralateral shoulder to push was decreased. […] (4) The tail of the rat was lifted 30 cm high away from the ground, and “1” was recorded if the animals ceaselessly circled contralaterally. “4” was full mark in accordance with the above-mentioned standard. The higher the score was, more severe the behavioral disorder of the animal was. 4. Results: The behavioral scores in each group were compared by student t test.

[2] = tested on: model rats of middle cerebral artery thrombosis (MCAT); assay: Effects on cerebral infarct area of MCAT rats; assay type: in vivo, SD rats; details: for Cerebral infarct tissue weight/total brain weight (%): 24 h after operation, TTC staining; for Inhibition (%): cerebral infarct vs. model group
[3] = tested on: thrombus of artery-vein bypass in rats; assay: Effects on thrombosis of artery-vein bypass in rats; assay type: in vivo, SD rats; details: for Dry-weight of thrombus / Wet-weight of thrombus: once per day for 3 days; for Inhibition (%) of dry-weight of thrombus / Inhibition (%) of wet-weight of thrombus: vs. thrombus model group
Protocol: Testing methods are described in Chen-Qi, “Methodology for Pharmacological Research of Chinese Medicine”,People's Medical Publishing House, Sep. 1993, 1st ed., page 510. […] Equivalent amount of the vehicle was administered to the thrombus model group. The operation was conducted immediately after the final administration. […] The operation was conducted to separate the right common carotid artery and the left external jugular vein. A pre-weighed suture # 0 of 8 cm long was placed into the middle part of a polyethylene tube of 10 cm long. Then the tube was filled with normal saline, and connected at both ends to the cannula of 3 cm long filled with normal saline. One end of the tube was inserted into the left external jugular vein, and another end was inserted into the right common carotid artery. The blood flowed from the right common carotid artery to the polyethylene tube, and then flow back to the left external jugular vein, so as to construct a bypass circulation. […] The wet-weight of the thrombus was obtained by subtracting the weight of the suture and the paper from this total wet weight. […] The thrombus was taken out and weighed to obtain a total dry weight. The dry weight of the thrombus was obtained by subtracting the weight of the suture and the paper form this total dry weight. The results in each group were compared by student's t test. […] Testing Results

in vivo = details: both, ICR, mouse, po
[4] = The Stability to Humidity (high humidity test); assay type: physicochemical; details: 10 days, HPLC purity
[5] = The Stability of Aqueous Solution; details: aqueous solution 0.2 mg/ml
Protocol: Compounds were dissolved in water to form aqueous solutions in a concentration of 0.2 mg/ml, and the amount of decomposed products were measured.
The amounts of decomposed products were determined in accordance with the test described in Pharmacopoeia of P.R. China, 2000 edition, appendix VD of part two, by HPLC method, C18 column, mobile phase of acetonitrile:0.02M sodium dihydrogen phosphate=40:60, detecting wavelength of 230 nm, flow rate of 1 ml/min.

[6] = viscous liquid; cited from earlier work

SMILES | Scores 6 hours ([1]; 50 mg/kg by gavage) | Scores 24 hours ([1]; 50 mg/kg by gavage) | Scores 6 hours ([1]; 100 mg/kg by gavage) | Scores 24 hours ([1]; 100 mg/kg by gavage) | Scores 6 hours ([1]; 200 mg/kg by gavage) | Scores 24 hours ([1]; 200 mg/kg by gavage) | Cerebral infarct tissue weight/total brain weight (%) ([2]; 50 mg/kg by gavage) | Inhibition (%) ([2]; 50 mg/kg by gavage) | Cerebral infarct tissue weight/total brain weight (%) ([2]; 100 mg/kg by gavage) | Inhibition (%) ([2]; 100 mg/kg by gavage) | Cerebral infarct tissue weight/total brain weight (%) ([2]; 200 mg/kg by gavage) | Inhibition (%) ([2]; 200 mg/kg by gavage) | also measured
CCCCC(=O)c1ccccc1C(=O)O [Calcium 2-(α-n-pentanonyl)benzoate, calcium 2-(α-n-pentanonyl)benzoate] | 3.18 ± 0.60 | 2.73 ± 0.65**^,s | 3.40 ± 0.52 | 2.90 ± 0.57 | 3.27 ± 0.79 | 2.45 ± 0.82 | 5.01 ± 1.79 | 32.39 | 5.23 ± 2.04 | 34.13 | 4.65 ± 2.13 | 38.90 | decomposed product detected, stability to light (in words) (The Stability to Light): no decomposed product; decomposed product detected, thermal stability (in words) (Thermal Stability): no decomposed product; cerebral infarct as compared with the model group (in words) ([2]; 50 mg/kg, P<0.05): significantly reduced; Dry-weight of thrombus ([3]; 50 mg/kg by gavage): 40.2 ± 18.0 mg; Wet-weight of thrombus ([3]; 50 mg/kg by gavage): 199.8 ± 30.4 mg; Inhibition (%) of dry-weight of thrombus ([3]; 50 mg/kg by gavage): 21.64%; Inhibition (%) of wet-weight of thrombus ([3]; 50 mg/kg by gavage): 22.92%; Dry-weight of thrombus ([3]; 100 mg/kg by gavage): 34.2 ± 13.1 mg; Wet-weight of thrombus ([3]; 100 mg/kg by gavage): 189.8 ± 52.3 mg; Inhibition (%) of dry-weight of thrombus ([3]; 100 mg/kg by gavage): 33.33%; Inhibition (%) of wet-weight of thrombus ([3]; 100 mg/kg by gavage): 26.77%; Dry-weight of thrombus ([3]; 200 mg/kg by gavage): 30.4 ± 13.9 mg; Wet-weight of thrombus ([3]; 200 mg/kg by gavage): 163.2 ± 64.4 mg; Inhibition (%) of dry-weight of thrombus ([3]; 200 mg/kg by gavage): 40.74%; Inhibition (%) of wet-weight of thrombus ([3]; 200 mg/kg by gavage): 37.04%; LD50 at 7 days (in vivo): 2680 mg/kg
CCCCC(O)c1ccccc1C(=O)[O-].[K+] (stereo not drawn) [Potassium 2-(α-hydroxypentyl)benzoate] | 3.50 ± 0.71 | 3.30 ± 0.48 | 3.55 ± 0.52 | 3.00 ± 0.89 | 3.45 ± 0.52 | 2.73 ± 0.79 | 6.16 ± 2.46 | 16.87 | 5.73 ± 2.20 | 27.83 | 5.37 ± 2.00 | 29.43 | decomposition after absorbing moisture (in words) [4]: highly decomposed; wt % decomposed product ([5]; 0 hr): 0 wt %; wt % decomposed product ([5]; 1 hr): 0.2 wt %; wt % decomposed product ([5]; 2 hr): 0.36 wt %; wt % decomposed product ([5]; 4 hr): 0.75 wt %; wt % decomposed product ([5]; 16 hr): 4.5 wt %; wt % decomposed product ([5]; 24 hr): 5.3 wt %
CCCCC1OC(=O)c2ccccc21 (racemic) [DL-3-n-butylphthalide] | 3.36 ± 0.81 | 3.09 ± 0.54 | 3.36 ± 0.50 | 3.09 ± 0.70 | 3.36 ± 0.67 | 3.00 ± 0.89 | 5.66 ± 2.81 | 23.62 | 5.81 ± 1.49 | 26.83 | 5.52 ± 1.78 | 27.46 | % inhibition at hour 24 ([1]; 50 mg/kg by gavage): 15.11%; % inhibition at hour 24 ([1]; 100 mg/kg by gavage): 17.16%; % inhibition at hour 24 ([1]; 200 mg/kg by gavage): 19.57%; solubility in water (in words) [6]: insoluble in water
